These are literature values, as cited in patent US20110207832A1, “SKIN DISINFECTANT COMPOSITION AND METHODS FOR MANUFACTURING AND USING” (Skinvisible Pharmaceuticals, Inc., priority 2010, published 2011).

The conditions of series [1]: in vivo.

For “Poly(vinylpyrrolidone/1-hexadecene) [PVPH]”, the dermal toxicity result in series [1] was “no demonstrable dermal toxicity”.

As to `[H]/N=C(\N/C(=N/[H])NCCCCCCNC(=N)NC(=N)Nc1ccc(Cl)cc1)Nc1ccc(Cl)cc1` [chlorhexidine, 1,6-di(4-chlorophenyl-diguanido) hexane], the “water solubility (in words)” value is reported as “practically insoluble in water”. For the compound “Poly(vinylpyrrolidone/1-eicosene) [PVPE]”, the dermal toxicity entry in series [1] is “no demonstrable dermal toxicity”.
